In general, Kd refers to the free concentration of one partner at which half of the binding sites on the other are occupied at equilibrium, for simple one-to-one binding. Read a low Kd as a tighter complex. As usually defined, the IC50 is the point on the concentration scale where inhibition reaches its midpoint. The half-life is the time needed for the level to fall by half in the phase considered.

This note sets out measurements from ChEMBL document CHEMBL3600283, “Enthalpic Forces Correlate with the Selectivity of Transthyretin-Stabilizing Ligands in Human Plasma” (J Med Chem, 2015).

Data set [1] deals with T1, Transthyretin (Homo sapiens, UniProt P02766). Nature of the data set: Binding affinity to TTR (unknown origin) by isothermal titration calorimetric analysis.
In data set [2] the target is T1, Transthyretin. Put plainly: Binding affinity to TTR in human plasma assessed as protein stabilization preincubated for 1 hr followed by urea-mediated denaturation by Western blot analysis. In general terms: Immunoblotting shows a protein as a band on a membrane.
Data set [3] is described as follows: Half life in plasma (unknown origin). The class given is ADME, cell-free.

Compound `O=C(O)COC(=O)Cc1ccccc1Nc1c(Cl)cccc1Cl` [ACECLOFENAC] came in with a dissociation constant Kd on Transthyretin [1] of 1.2 µM. For the same compound, the IC50 on Transthyretin [2] (read-out: IC50) was found to be 170 µM.

Consider `O=c1cc(-c2ccc(O)cc2)oc2cc(O)cc(O)c12` [APIGENIN], for which binding on Transthyretin [1] was put at a Kd of 0.25 µM. Also, the IC50 on Transthyretin [2] is 18 µM.

At Transthyretin [1], `O=C(O)Cc1ccccc1Nc1c(Cl)cccc1Cl` [DICLOFENAC] showed a Kd of 1 µM. In addition, the IC50 at Transthyretin [2] (read-out: IC50) was 140 µM.

Turning to `Cc1ccc(C)c(OCCCC(C)(C)C(=O)O)c1` [GEMFIBROZIL], on Transthyretin [1], the Kd was 0.1 µM. Also, the half-life in data set [3] is 1.5 h. Moreover, the IC50 on Transthyretin [2] (read-out: IC50) was found to be 180 µM.

`O=c1cc(-c2ccc(O)c(O)c2)oc2cc(O)cc(O)c12` [LUTEOLIN] yielded a Kd on Transthyretin [1] of 0.07 µM. Also, the IC50 on Transthyretin [2] (read-out: IC50) came to 7 µM.

On to `Cc1ccc(Cl)c(Nc2ccccc2C(=O)O)c1Cl` [MECLOFENAMIC ACID], for which the Kd at Transthyretin [1] amounted to 0.48 µM. In addition, at Transthyretin [2] (read-out: IC50), the half-maximal inhibitory concentration (IC50) was found to be 50 µM.

As for `Cc1c(Cl)cccc1Nc1ccccc1C(=O)O` [TOLFENAMIC ACID], on Transthyretin [1], the Kd stood at 0.15 µM. Besides, the IC50 at Transthyretin [2] (read-out: IC50) came to 40 µM.
